Test results taken from patent publication US5447719A, “β-glucuronidase inhibitor” (priority 1991, dated 1995).

Key:
bone marrow = conditions: cited from earlier work
β-glucuronidase = target: T1, β-glucuronidase (Escherichia coli, UniProt P05804); assay: β-glucuronidase inhibition: residual activity (production of formula III compound from formula II compound, HPLC); type: biochemical; conditions: formula II substrate 100 nmol/ml, pH 6.8, 37° C., 20 min; for remaining activity at 0.0167 µM: 16.7 nM; for remaining activity at 0.0333 µM: 33.3 nM; for remaining activity at 0.1667 µM: 166.7 nM
T1 construct: purchased Sigma Chemical Co
Procedure: β-glucuronidase (manufactured by Sigma Chemical Co.) derived from Escherichia coli was added to a reaction solution comprising 50 μl of potassium phosphate buffer (pH: 6.8), a solution of a compound (100 nmol/ml) represented by the formula II and produced by Reference Example which will be described later and a specimen, and a reaction was allowed to proceed at 37° C. for 20 min. A glycine buffer (pH: 10.4) was added to terminate the reaction. 10 μl of the reaction mixture and 100 μl of an internal standard (camptothecin) solution were added to 1 ml of a 0.01N aqueous hydrochloric acid solution, and the mixture was applied to Bond Elute C18 (Analytichem), washed with water and 0.01N aqueous hydrochloric acid solution. Elution was effected with acetonitrile/water (1:2). 100 μl of the eluate obtained by elution with acetonitrile/water (1:2) was analyzed by high performance liquid chromatography (HPLC) under the following conditions, and the β-glucuronidase activity was calculated by using the amount of production of the compound represented by the formula III as an indication.
Apparatus: high performance liquid chromatograph HLC-803D manufactured by Toyo Soda
Analytical column: Tosoh ODS-80TM 250×4.6 mm (I.D.)
Thermostatic chamber of column: Tosoh CO-8011 40° C.
Guard column: Tosoh TSKguradgel ODS-120T
Detector: Shimazu Fluorescence HPLCMonitor RF-530
Detection wavelength: Ex380nm Em556nm
Autosampler: Tosoh AS-8000
Eluent: acetonitrile/water (1:2)

T1 sequence (P05804 whole entry): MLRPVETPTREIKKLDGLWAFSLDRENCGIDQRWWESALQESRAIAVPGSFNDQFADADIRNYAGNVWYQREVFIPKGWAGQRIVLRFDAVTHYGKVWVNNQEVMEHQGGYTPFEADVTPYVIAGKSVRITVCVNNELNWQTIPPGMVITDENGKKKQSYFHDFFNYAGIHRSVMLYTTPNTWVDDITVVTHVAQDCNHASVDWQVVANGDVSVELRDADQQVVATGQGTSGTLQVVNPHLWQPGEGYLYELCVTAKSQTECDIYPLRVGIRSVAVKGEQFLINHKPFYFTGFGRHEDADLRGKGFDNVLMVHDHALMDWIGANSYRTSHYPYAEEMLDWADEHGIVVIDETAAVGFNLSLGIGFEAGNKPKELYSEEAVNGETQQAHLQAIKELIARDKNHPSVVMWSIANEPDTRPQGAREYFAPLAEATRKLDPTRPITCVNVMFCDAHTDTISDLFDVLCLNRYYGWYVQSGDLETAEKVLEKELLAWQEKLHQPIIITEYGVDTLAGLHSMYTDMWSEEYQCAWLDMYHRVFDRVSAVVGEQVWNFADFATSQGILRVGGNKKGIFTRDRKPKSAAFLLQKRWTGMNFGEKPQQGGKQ

| Structure (SMILES) | toxicity (bone marrow) | remaining activity at 0.0167 µM (β-glucuronidase) [%] | remaining activity at 0.0333 µM (β-glucuronidase) [%] | remaining activity at 0.1667 µM (β-glucuronidase) [%] |
| --- | --- | --- | --- | --- |
| CC[C@@]1(O)C(=O)OCc2c1cc1n(c2=O)Cc2cc3ccccc3nc2-1 [Camptothecin, camptothecin] | strong inhibition of bone marrow | – | – | – |
| O=C(O)[C@H]1O[C@@H](Oc2cc3oc(-c4ccccc4)cc(=O)c3c(O)c2O)[C@H](O)[C@@H](O)[C@@H]1O [Baicalin, baicalin] | – | 19 | 10.7 | 2.3 |
| COc1c(O[C@@H]2O[C@H](C(=O)O)[C@@H](O)[C@H](O)[C@H]2O)cc2oc(-c3ccccc3)cc(=O)c2c1O [Oroxylin A-7-O-glucuronide, oroxylin A-7-O-glucuronide] | – | 31.1 | 17 | 3 |
| O=C(O)[C@H]1O[C@@H](Oc2cc(-c3cc(=O)c4c(O)cc(O)cc4o3)ccc2O)[C@H](O)[C@@H](O)[C@@H]1O [Luteolin-3'-glucuronide, luteolin-3'-glucuronide] | – | 28.5 | 13.2 | 2.1 |
